Results reported in PMC6324787, “Deletion of genes involved in the ketogluconate metabolism, Entner-Doudoroff pathway, and glucose dehydrogenase increase local and invasive virulence phenotypes in Streptococcus pneumoniae” (PLoS ONE, 2019).

Experiments:
SP 0318 = biological target: T1, SP 0318 (Streptococcus pneumoniae, UniProt A0A0H2UNG9); assay: ADP-glucokinase / G6PDH-coupled NADPH formation, A340; type: biochemical; settings: 10 mM KDG, 2.5 mM ATP, 10 mM MgCl2, 50 mM Tris-Cl, pH 8.5, 37 °C
T1 construct: gene SP_0318
T1 sequence (A0A0H2UNG9 1-333): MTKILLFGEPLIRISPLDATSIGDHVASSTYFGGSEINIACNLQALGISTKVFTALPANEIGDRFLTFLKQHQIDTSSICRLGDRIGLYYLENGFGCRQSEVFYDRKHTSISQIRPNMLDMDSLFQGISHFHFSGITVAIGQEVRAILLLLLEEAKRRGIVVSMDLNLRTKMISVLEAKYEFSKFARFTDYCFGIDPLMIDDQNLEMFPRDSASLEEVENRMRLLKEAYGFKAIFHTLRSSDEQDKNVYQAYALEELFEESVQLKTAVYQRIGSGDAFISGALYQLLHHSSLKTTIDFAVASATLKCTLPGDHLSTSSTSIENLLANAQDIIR

SP 0320 = biological target: T2, SP 0320 (Streptococcus pneumoniae, UniProt A0A0H2UNC9); assay: NADH oxidation, A340; type: biochemical; settings: 300 mM potassium 5-keto-D-gluconate, 150 µM NADH, 100 mM Tris-Cl, pH 6.5, 37 °C
T2 construct: gene SP_0320
T2 sequence (A0A0H2UNC9 1-271): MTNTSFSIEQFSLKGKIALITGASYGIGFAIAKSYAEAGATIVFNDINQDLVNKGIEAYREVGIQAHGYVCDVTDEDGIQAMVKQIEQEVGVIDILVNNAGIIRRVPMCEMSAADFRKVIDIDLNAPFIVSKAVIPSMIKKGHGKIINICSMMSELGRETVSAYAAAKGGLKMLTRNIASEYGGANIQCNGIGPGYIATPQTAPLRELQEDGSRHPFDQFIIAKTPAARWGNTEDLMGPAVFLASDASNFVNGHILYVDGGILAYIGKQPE

Structure (SMILES)	ADP-glucokinase / G6PDH-coupled NADPH formation, A340 (SP 0318)	NADH oxidation, A340 (SP 0320)
Nc1ncnc2c1ncn2[C@@H]1O[C@H](COP(=O)(O)OP(=O)(O)OP(=O)(O)O)[C@@H](O)[C@H]1O [ATP]	phosphorylation of 2-keto-3-deoxygluconate (KDG) in the presence of ATP to give KDGP	–
NC(=O)C1=CN([C@@H]2O[C@H](COP(=O)(O)OP(=O)(O)OC[C@H]3O[C@@H](n4cnc5c(N)ncnc54)[C@H](O)[C@@H]3O)[C@@H](O)[C@H]2O)C=CC1 [NADH]	–	reduction of 5-keto-D-gluconate to D-gluconate with the subsequent oxidation of NADH
